The test system of the test is C. neoformans H99. Put plainly: Epsilometer test (E-test) with fluconazole strips. Format: cell-based. Conditions: YPD plates with 4456dh, fluconazole E-test strip, 37°C, 72 h, dose-dependent. How it is done: Inhibitors of Tps1 may work synergistically with known antifungal drugs. In C. glabrata, the trehalose biosynthesis mutant, tps2Δ, is more susceptible to fluconazole at 37°C ([40]). Therefore, we hypothesized that there might be synergy between 4456dh and fluconazole.
169 different concentrations (0.5mM, 1mM, and 5mM) and one was used as untreated control.
170 tps1/ tps1 deletion mutant was used as a negative control for filamentation in these assays. 10 µl
171 of cell suspension was directly used for imaging the filamentation status of the cells using the
172 Zeiss Axio Scope microscope attached to the Axiocam at 40X magnification. The images were
173 processed using Fiji (8) for the final presentation.
174 Epsilometer Test (E-test)
175 C. neoformans wild type (H99) was incubated in a shaking culture of YPD medium for 18 h at
176 30 °C. The culture was diluted to an OD600 0.6, diluted 10-fold in PBS, and 100 µL was spread
177 onto 60 X 15 mm YPD agar plates prepared with different concentrations of 4456dh. After the […]
190 (Zeiss). The size of the capsule of > 100 cells per 4456dh treatment was quantified using Image […]
247 was measured using a colorimetric glucose assay after treatment of cultures with trehalase. […]
249 Supplemental Figure 11. Quantification of capsule formation in C. neoformans treated with
250 4456dh. Images taken were analyzed with ImageJ. […]
251 were analyzed. […]

The structures appear in SMILES notation.

Take `Cn1cc(-c2csc(NC(=O)Cc3ccccn3)n2)cn1` [Compound 4456dh]: the synergy with fluconazole entry is reported as “detected synergy”.
